Converted amounts (≈) assume the structure as drawn. One block for each compound: values may come before it.
Columns and labels:
[1] = Solubility in PBS buffer at ph 6.5; type: physicochemical
[2] = Volume of distribution in rat; type: ADME, organism-based; details: in vivo, read-out: Vdss
[3] = Half life in rat; type: ADME, organism-based; details: in vivo
[4] = Bioavailability in rat; type: ADME, organism-based; details: in vivo
[5] = Plasma clearance in monkey; type: ADME, organism-based, Macaca mulatta; details: rhesus monkey
[6] = Volume of distribution in monkey; type: ADME, organism-based, Macaca mulatta; details: rhesus monkey, in vivo; read-out: Vdss
[7] = Half life in monkey; type: ADME, organism-based, Macaca mulatta; details: rhesus monkey, in vivo
[8] = Bioavailability in monkey; type: ADME, organism-based, Macaca mulatta; details: rhesus monkey, in vivo
[9] = Distribution coefficient, log D of the compound; type: physicochemical; details: octanol/water
[10] = Plasma clearance in rat; type: ADME, organism-based
[11] = Dissociation constant, pKa of the compound; type: physicochemical
[12] = tested on: Monocyte; assay: Inhibition of LPS-induced TNFalpha production in human monocytes; type: functional, cell-based
[13] = biological target: Dual specificity mitogen-activated protein kinase kinase 1 (Homo sapiens, UniProt Q02750); assay: Inhibition of MKK1
[14] = biological target: Mitogen-activated protein kinase 14 (Homo sapiens, UniProt Q16539); assay: Inhibition of p38alpha
[15] = species on record: Homo sapiens; assay: Inhibition of LPS-induced TNFalpha production in human whole blood; type: functional, organism-based
[16] = biological target: c-Jun N-terminal kinase, JNK (Homo sapiens, UniProt P45983+P53779+P45984); assay: Inhibition of JNK; type: protein assay
[17] = biological target: Ribosomal protein S6 kinase alpha-1 (Homo sapiens, UniProt Q15418); assay: Inhibition of MAPKAP-K1a
[18] = biological target: MAP kinase-activated protein kinase 2 (Homo sapiens, UniProt P49137); assay: Inhibition of MAPKAP-K2
[19] = biological target: Ribosomal protein S6 kinase alpha-5 (Homo sapiens, UniProt O75582); assay: Inhibition of MSK1
Sequence of Ribosomal protein S6 kinase alpha-5 (O75582 whole entry): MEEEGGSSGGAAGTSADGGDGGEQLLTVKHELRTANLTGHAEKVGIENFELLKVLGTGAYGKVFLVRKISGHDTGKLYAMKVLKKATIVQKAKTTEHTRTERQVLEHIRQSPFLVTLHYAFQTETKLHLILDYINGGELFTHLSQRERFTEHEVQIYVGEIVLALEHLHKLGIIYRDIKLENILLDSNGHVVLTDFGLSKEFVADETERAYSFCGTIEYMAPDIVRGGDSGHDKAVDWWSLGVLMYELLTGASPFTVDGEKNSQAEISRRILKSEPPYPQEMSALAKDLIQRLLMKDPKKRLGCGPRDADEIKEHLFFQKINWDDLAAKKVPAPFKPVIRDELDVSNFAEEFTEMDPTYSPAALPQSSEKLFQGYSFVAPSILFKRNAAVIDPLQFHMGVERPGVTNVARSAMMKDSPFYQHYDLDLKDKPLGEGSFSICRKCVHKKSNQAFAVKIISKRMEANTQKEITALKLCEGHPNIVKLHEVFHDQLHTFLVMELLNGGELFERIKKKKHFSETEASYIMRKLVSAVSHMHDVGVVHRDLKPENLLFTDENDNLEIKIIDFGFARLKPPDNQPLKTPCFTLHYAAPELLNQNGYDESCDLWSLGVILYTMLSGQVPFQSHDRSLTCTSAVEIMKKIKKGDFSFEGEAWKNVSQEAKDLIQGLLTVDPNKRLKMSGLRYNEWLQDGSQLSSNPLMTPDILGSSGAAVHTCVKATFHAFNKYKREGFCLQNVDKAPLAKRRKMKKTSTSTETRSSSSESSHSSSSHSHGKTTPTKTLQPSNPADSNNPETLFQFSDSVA

[20] = biological target: T1, MAP kinase-activated protein kinase 5 (Homo sapiens, UniProt Q8IW41); assay: Inhibition of PRAK
T1 sequence (Q8IW41 whole entry): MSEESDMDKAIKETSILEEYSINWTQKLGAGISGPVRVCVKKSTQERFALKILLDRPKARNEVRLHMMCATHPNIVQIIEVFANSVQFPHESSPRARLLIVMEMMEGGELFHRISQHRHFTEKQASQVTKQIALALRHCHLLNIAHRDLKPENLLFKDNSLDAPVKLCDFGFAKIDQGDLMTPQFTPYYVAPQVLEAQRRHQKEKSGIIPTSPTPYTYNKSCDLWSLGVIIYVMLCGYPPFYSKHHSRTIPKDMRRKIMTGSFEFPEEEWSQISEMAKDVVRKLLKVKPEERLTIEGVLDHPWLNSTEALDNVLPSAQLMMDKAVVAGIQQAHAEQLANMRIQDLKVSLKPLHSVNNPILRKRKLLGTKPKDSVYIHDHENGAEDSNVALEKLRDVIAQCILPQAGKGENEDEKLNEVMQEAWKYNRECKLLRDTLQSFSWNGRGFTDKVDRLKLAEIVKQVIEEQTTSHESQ

[21] = biological target: Protein kinase C alpha type (Homo sapiens, UniProt P17252); assay: Inhibition of PKCalpha
[22] = Inhibition of PKC
[23] = biological target: T2, 3-phosphoinositide-dependent protein kinase 1 (Homo sapiens, UniProt O15530); assay: Inhibition of PDK1
T2 sequence (O15530 whole entry): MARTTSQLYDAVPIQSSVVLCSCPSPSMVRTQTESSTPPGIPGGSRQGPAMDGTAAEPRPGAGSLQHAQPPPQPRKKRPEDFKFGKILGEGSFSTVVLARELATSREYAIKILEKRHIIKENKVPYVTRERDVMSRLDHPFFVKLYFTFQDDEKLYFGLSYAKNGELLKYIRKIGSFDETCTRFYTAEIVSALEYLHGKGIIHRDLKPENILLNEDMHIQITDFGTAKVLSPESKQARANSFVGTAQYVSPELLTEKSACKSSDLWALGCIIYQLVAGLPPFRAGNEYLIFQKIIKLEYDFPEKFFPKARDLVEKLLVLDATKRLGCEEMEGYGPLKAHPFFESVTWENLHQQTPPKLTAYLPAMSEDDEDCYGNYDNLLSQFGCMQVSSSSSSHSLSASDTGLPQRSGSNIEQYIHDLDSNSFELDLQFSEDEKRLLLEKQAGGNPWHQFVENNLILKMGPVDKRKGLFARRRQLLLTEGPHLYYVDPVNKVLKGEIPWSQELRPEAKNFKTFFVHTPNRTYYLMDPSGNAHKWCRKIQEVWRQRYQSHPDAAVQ

[24] = biological target: T3, Serine/threonine-protein kinase Sgk1 (Homo sapiens, UniProt O00141); assay: Inhibition of SGK
T3 sequence (O00141 whole entry): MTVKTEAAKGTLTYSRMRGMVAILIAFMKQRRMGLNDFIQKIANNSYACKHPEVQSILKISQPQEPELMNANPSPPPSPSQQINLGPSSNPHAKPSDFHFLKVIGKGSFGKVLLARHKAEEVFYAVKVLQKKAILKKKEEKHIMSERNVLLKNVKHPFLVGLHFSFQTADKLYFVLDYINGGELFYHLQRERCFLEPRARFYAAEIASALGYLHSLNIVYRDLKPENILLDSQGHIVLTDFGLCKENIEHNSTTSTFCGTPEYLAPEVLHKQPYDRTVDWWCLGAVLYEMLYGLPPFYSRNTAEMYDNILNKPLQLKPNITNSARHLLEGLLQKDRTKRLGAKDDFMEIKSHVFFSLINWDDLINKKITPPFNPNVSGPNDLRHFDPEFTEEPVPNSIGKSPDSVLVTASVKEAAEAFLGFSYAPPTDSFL

[25] = biological target: RAC-alpha serine/threonine-protein kinase (Homo sapiens, UniProt P31749); assay: Inhibition of PKBalpha
Sequence of RAC-alpha serine/threonine-protein kinase (P31749 whole entry): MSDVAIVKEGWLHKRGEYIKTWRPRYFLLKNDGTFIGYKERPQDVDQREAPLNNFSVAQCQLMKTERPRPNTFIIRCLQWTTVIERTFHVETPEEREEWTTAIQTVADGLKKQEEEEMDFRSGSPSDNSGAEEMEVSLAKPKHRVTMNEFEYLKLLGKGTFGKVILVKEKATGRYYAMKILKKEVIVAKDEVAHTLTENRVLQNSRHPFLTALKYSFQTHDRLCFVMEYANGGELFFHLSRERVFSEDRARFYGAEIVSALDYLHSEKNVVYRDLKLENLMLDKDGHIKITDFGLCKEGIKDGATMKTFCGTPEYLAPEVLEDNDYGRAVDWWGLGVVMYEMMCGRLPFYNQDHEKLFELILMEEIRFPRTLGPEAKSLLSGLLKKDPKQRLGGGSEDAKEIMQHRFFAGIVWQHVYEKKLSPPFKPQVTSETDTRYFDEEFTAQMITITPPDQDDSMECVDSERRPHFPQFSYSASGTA

[26] = biological target: Ribosomal protein S6 kinase (P70S6K) (Homo sapiens, UniProt P23443+Q9UBS0); assay: Inhibition of P70S6K; type: protein-complex assay
Sequence of Ribosomal protein S6 kinase (P70S6K) (Q9UBS0 whole entry): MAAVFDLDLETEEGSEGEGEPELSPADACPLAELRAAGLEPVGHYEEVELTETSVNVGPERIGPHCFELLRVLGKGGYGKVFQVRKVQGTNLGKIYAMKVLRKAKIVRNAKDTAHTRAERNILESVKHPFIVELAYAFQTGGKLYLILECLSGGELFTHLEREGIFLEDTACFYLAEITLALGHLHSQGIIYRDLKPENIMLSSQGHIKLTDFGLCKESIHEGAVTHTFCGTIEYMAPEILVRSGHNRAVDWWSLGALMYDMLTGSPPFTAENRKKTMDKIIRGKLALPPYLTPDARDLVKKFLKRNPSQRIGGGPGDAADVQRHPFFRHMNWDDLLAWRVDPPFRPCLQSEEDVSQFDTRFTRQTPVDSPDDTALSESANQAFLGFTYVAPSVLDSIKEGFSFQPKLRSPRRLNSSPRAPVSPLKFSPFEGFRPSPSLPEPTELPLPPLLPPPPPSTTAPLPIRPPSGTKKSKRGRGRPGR
Sequence of Ribosomal protein S6 kinase (P70S6K) (P23443 whole entry): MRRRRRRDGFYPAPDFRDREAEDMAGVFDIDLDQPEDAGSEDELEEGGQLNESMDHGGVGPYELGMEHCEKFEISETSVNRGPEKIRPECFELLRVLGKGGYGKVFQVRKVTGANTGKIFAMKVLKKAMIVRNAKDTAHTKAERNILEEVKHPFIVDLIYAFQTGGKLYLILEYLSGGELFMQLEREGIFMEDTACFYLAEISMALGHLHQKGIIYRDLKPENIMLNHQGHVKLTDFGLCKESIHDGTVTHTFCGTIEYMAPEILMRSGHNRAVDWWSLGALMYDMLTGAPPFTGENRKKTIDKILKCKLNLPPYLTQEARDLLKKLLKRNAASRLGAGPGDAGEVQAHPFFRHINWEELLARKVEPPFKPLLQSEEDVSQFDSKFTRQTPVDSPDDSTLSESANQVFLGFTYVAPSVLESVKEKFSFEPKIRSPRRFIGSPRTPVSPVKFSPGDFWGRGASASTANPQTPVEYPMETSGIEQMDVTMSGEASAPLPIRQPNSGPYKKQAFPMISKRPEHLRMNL

[27] = biological target: Glycogen synthase kinase-3 beta (Homo sapiens, UniProt P49841); assay: Inhibition of GSK3-beta
[28] = biological target: Rho-associated protein kinase 2 (Homo sapiens, UniProt O75116); assay: Inhibition of ROCK2
Sequence of Rho-associated protein kinase 2 (O75116 whole entry): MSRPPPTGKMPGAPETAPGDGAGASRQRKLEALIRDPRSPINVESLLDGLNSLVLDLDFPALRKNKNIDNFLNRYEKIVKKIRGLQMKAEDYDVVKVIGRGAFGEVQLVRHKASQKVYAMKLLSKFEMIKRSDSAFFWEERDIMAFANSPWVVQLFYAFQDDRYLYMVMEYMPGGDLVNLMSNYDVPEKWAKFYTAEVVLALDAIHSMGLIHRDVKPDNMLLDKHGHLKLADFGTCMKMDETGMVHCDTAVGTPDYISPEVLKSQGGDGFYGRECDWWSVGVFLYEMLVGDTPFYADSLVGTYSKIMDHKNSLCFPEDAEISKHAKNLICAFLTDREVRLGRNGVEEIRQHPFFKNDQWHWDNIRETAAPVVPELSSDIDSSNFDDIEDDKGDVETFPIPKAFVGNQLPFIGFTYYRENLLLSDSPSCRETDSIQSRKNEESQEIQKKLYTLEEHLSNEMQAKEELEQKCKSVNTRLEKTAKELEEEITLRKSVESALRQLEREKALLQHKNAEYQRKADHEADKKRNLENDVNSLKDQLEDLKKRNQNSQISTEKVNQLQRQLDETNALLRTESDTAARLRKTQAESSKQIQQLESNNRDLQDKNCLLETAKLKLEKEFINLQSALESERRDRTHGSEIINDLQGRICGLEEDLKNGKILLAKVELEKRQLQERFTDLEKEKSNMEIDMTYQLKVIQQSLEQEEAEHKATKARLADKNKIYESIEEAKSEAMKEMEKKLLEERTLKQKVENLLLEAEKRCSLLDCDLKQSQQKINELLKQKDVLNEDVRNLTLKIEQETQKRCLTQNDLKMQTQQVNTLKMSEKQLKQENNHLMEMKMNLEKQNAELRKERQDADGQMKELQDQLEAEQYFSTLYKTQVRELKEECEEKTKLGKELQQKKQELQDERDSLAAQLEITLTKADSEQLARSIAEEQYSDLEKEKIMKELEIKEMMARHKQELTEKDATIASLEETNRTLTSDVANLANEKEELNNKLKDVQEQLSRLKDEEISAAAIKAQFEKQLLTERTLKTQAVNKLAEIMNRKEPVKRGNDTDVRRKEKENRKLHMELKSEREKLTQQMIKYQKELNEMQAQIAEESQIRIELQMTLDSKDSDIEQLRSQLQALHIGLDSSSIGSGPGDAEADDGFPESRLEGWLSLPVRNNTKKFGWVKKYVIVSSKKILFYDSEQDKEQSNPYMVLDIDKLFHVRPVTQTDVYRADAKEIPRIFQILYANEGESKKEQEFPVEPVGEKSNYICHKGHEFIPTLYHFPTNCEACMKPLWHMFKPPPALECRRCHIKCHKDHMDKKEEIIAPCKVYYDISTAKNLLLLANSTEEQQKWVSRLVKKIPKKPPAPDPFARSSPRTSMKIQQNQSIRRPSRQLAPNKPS

[29] = biological target: AMP-activated protein kinase, AMPK; assay: Inhibition of AMPK; type: protein-complex assay
[30] = biological target: T4, Serine/threonine-protein kinase Chk1 (Homo sapiens, UniProt O14757); assay: Inhibition of CHK1
T4 sequence (O14757 whole entry): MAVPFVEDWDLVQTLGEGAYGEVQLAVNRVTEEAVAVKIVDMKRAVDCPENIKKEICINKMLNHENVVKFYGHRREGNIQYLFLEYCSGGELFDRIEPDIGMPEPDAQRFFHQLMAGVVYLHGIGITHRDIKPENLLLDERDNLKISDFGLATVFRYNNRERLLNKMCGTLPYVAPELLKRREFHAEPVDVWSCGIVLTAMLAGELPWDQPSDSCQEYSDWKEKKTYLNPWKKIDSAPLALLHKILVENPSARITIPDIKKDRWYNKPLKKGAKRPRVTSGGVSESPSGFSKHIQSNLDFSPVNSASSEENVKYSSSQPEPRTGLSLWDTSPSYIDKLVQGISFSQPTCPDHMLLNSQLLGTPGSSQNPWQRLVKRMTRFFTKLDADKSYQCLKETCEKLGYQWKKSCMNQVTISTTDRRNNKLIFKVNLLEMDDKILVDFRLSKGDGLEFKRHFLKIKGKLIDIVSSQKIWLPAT

[31] = biological target: Casein kinase II (Homo sapiens, UniProt P19784+P67870+P68400); assay: Inhibition of CK2; type: protein-complex assay
[32] = biological target: Tyrosine-protein kinase CSK (Homo sapiens, UniProt P41240); assay: Inhibition of CSK
[33] = biological target: Cyclin-dependent kinase 2 (Homo sapiens, UniProt P24941); assay: Inhibition of CDK2
[34] = Inhibition of PI3K
[35] = biological target: Dual specificity tyrosine-phosphorylation-regulated kinase 1A (Homo sapiens, UniProt Q13627); assay: Inhibition of DYRK1a
[36] = Inhibition of phosphorylase kinase
[37] = biological target: Mitogen-activated protein kinase 1 (Homo sapiens, UniProt P28482); assay: Inhibition of ERK2
Sequence of Mitogen-activated protein kinase 1 (P28482 whole entry): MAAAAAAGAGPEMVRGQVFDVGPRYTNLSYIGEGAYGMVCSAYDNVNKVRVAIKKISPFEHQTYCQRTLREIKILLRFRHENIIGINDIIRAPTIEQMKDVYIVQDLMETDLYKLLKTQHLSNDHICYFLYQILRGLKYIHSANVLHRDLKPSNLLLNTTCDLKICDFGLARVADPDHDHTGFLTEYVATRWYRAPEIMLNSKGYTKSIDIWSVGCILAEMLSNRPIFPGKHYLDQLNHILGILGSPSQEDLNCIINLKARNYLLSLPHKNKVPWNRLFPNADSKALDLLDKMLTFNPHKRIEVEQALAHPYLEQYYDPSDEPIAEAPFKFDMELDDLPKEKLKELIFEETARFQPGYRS

solubility [1]: 29.6 µg/mL (≈ 91.8 µM)
Vd [2]: 0.8 L/kg
half-life [3]: 0.7 h
bioavailability [4]: 85%
clearance [5]: 16 mL/min/kg
Vd [6]: 1.8 L/kg
half-life [7]: 1.3 h
bioavailability [8]: 75%
logD [9]: 2.18
clearance [10]: 12 mL/min/kg
pKa [11]: 2.86
SMILES: CC(C)c1nnc2ccc(-c3ocnc3-c3ccc(F)cc3)cn12

IC50 [12]: 0.0197 µM
IC50 [13]: > 10 µM
IC50 [14]: 0.0032 µM
IC50 [15]: 0.263 µM
IC50 [16]: > 10 µM
IC50 [17]: > 10 µM
IC50 [18]: > 10 µM
IC50 [19]: > 10 µM
IC50 [20]: > 10 µM
IC50 [21]: > 10 µM
IC50 [22]: > 10 µM
IC50 [23]: > 10 µM
IC50 [24]: > 10 µM
IC50 [25]: > 10 µM
IC50 [26]: > 10 µM
IC50 [27]: > 10 µM
IC50 [28]: > 10 µM
IC50 [29]: > 10 µM
IC50 [30]: > 10 µM
IC50 [31]: > 10 µM
IC50 [32]: > 10 µM
IC50 [33]: > 10 µM
IC50 [34]: > 10 µM
IC50 [35]: > 10 µM
IC50 [36]: > 10 µM
IC50 [37]: > 10 µM
SMILES: CC(C)c1nnc2ccc(-c3ocnc3-c3cc(F)c(F)cc3F)cn12

Reference: ChEMBL document CHEMBL1145312, “Structure-activity relationships of triazolopyridine oxazole p38 inhibitors: identification of candidates for clinical development” (Bioorg Med Chem Lett, 2006)
